The source made the active and inactive calls.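 How the source made its calls: active means raises the calcium signal in non-induced parental cells at some tested dose and a dose-response curve can be fitted; inactive means no activation at any dose, or no dose-response curve.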

System in the first assay: not listed separately
The assay is described as follows: M3R signalling without RGS4 expression – cell-based, HEK293 M3R, non-induced RGS4, SAR compounds, counter-screen for RGS4 potentiator project, SAR follow-up (AID 624166). The note with it: HEK293 M3R non-induced RGS4, carbachol calcium Fluo4; at 33.3 µM (top of the series). A general note: Counterscreens check selectivity or assay interference.
Regarding `Cc1ccc(NC(=O)c2cc(-c3cccs3)nc3ccccc23)nc1`, the calcium response, lower = inhibition is 52.7 (inactive).
With `O=C(CNC1CCCCCC1)Nc1ccc(S(=O)(=O)NC2CC2)cc1`, the calcium response, lower = inhibition was 19.6 (inactive).
Still for that read-out and setting: to `O=C(CNc1ccccc1)c1ccc([N+](=O)[O-])cc1` belongs 24.6 (inactive); to `O=C(Nc1ccccc1N1CCN(C(=O)c2ccccc2)CC1)c1ccc(Cl)o1`, 17.2 (inactive).

For a further assay, the system named is HEK293 M3R non-induced RGS4, carbachol calcium Fluo4. Described as above.
Conditions: not given
`COC(=O)c1cccc(Nc2nc(-c3cccnc3)nc3ccccc23)c1`: the concentration for a half-maximal effect (EC50) is 5.82 µM.
Consider `CC(C)Cn1c(-c2ccc(F)cc2)n[nH]c1=S`, for which the EC50 is 4.11 µM.
Same read-out and setting: in the case of `CCCCn1c(-c2csc(CCC)c2)n[nH]c1=S` it was 3.34 µM.
On the same count and under the same terms, to `COC(=O)C1CCCN(C(=O)c2cc(-c3ccc(C)cc3)nc3ccccc23)C1` (stereo not drawn) belongs 16.1 µM; to `Cc1ccc(S(=O)(=O)c2ccc(Oc3cccc(C)c3)cc2)cc1`, 2.7 µM.
On the same count and under the same terms, in the case of `S=c1[nH]nc(-c2ccc(Cl)cc2)n1CC1CCCO1` (stereo not drawn) it was 7.62 µM; in that of `CCn1cc(CN2CCC(n3nccc3NC(=O)c3ccc(OC)cc3)CC2)cn1`, 9.27 µM.
Regarding `CN(Cc1ccc(F)cc1)C(=O)C(c1ccccc1)c1ccccc1`, the 50% effective concentration (EC50) was 3.18 µM.
On to `CCN1CCCC1CNCc1ccccc1OCc1ccc(F)cc1` (stereo not drawn), for which the concentration for a half-maximal effect (EC50) is 10.8 µM.

By EC50 is commonly meant the concentration at which the effect is half-maximal.

These data come from PubChem BioAssay AID624166 (Johns Hopkins Ion Channel Center, 2012).
